# Reference: patent US20180305657A1, “Bioactive Fungi” (Agriculture Victoria Services PTY LTD, priority 2015, published 2018)
# Where two headings read alike, the source gives them in different places.
# How the values were obtained:
# Tribolium castaneum = system: Tribolium castaneum
# Description: A total of 20 chemical standards were evaluated for their insecticidal activity against the stored grain pest, Tribolium castaneum. These chemical standards represented compounds in the volatolome of Daldinia sp. or were structural analogues of these compounds (Table 5). […] The insect pest was inoculated on to one half of the Petri plate by placing 4 insects onto feed (wheat flour and yeast). A chemical standard was then aliquoted (5 microlitre) on to the other half of the Petri plate on filter paper. Plates were immediately sealed with Parafilm®, covered in aluminium foil (i.e. in the dark) and maintained at room temperature. The mortality of insects was monitored daily by assessing insect movement as an indicator of mortality. The mortality was calculated by comparing the number of dead insects to the total number in the plate, and expressed as percentage mortality (Tables 6). Data were analysed using ANOVA as performed in GenStat, version 14. The experiment was fully randomised with 5 replicates for each endophyte.
# T. castaneum = system: T. castaneum
# Description: The bioassays were conducted in 1 litre Schott bottles. The insect pest was inoculated into the bioassay by placing 9-12 insects onto feed (wheat flour and yeast). The biocidal compounds were then aliquoted into the bioassay at volumes ranging from 20-200 microlitres, ensuring no direct contact with the insect. Bottles were immediately sealed with Parafilm® and maintained at room temperature. The mortality of insects was monitored daily for three days exposure, by assessing insect movement as an indicator of mortality. The mortality was calculated by comparing the number of dead insects to the total number in the bioassay, and expressed as percentage mortality. Data were analysed using ANOVA as performed in GenStat, version 14. The experiment was fully randomised with 4 replicates for each endophyte.
# Pseudomonas syringae = test: Bactericidal bioassay, compounds alone or in synergy; type: cell-based; conditions: for Growth Scale: compound alone, 10 μL, 3 days, 2 equivalent growth to control, 1 less growth, 0 no growth; for activity against P. syringae: used alone (acetaldehyde, isovaleraldehyde: alone or in combination)
# Excerpt: A bactericidal bioassay was established to evaluate the effect of the most insecticidal candidate compounds against the plant pathogenic bacterium Pseudomonas syringae, when applied alone or in synergy with other compounds from the volatolome of Daldinia sp. The pathogen was inoculated on to one third of the Petri plate by streaking bacterial cells from an actively growing culture (overnight) on to nutrient agar (NA). A candidate compound was then aliquoted (10 microlitres—except Acetaldehyde: 20 microlitres due to high volatility) onto another third of the Petri plate on filter paper. […] An untreated control was included and consisted of no compounds.
# Fusarium verticillioides = test: Fungicidal bioassay, compounds alone or in synergy; type: cell-based; conditions: for % Inhibition (v control): 4 days; for fungicidal activity against F. verticillioides: in isolation; for inhibition of growth of the pathogen: in isolation and in combination with any of the compounds tested
# Excerpt: A fungicidal bioassay was established to evaluate the effect of key compounds from the volatolome of Daldinia sp. against the plant pathogenic fungus, Fusarium verticillioides, when applied alone and in synergy with other compounds from the volatolome of Daldinia sp. The pathogen was inoculated on to one third of the Petri plate by placing an agar plug of actively growing hyphae onto PDA. Candidate compounds were then aliquoted (10 microlitres) on to another third of the Petri plate on filter paper. […] After 4 days the growth of the pathogen was determined by measuring the radius of the colony (on two alternate planes).
structure (smiles),measurement,setting,value
"C1=CCCCC=C1 [1,3 Cycloheptadiene, 1,3-cycloheptadiene]",% Mortality Day 1,"Tribolium castaneum; 5 microlitre, Day 1",12.5%
same,% Mortality Day 2,"Tribolium castaneum; 5 microlitre, Day 2",20.8%
same,% Mortality Day 3,"Tribolium castaneum; 5 microlitre, Day 3",27.5%
same,% Mortality Day 4,"Tribolium castaneum; 5 microlitre, Day 4",27.5%
"CC1=CCC=CC1 [1-Methyl-1,4-cyclohexadiene]",% Mortality Day 1,"Tribolium castaneum; 5 microlitre, Day 1",0.0%
same,% Mortality Day 2,"Tribolium castaneum; 5 microlitre, Day 2",0.0%
same,% Mortality Day 3,"Tribolium castaneum; 5 microlitre, Day 3",0.0%
same,% Mortality Day 4,"Tribolium castaneum; 5 microlitre, Day 4",0.0%
"CC(=O)C(C)=O [2,3 Butanedione, 2,3-butanedione]",% Mortality Day 1,Tribolium castaneum; in vivo,0.0%
same,% Mortality Day 2,Tribolium castaneum; in vivo,0.0%
same,% Mortality Day 3,Tribolium castaneum; in vivo,0.0%
same,% Mortality Day 4,Tribolium castaneum; in vivo,0.0%
same,mortality grouping in title of Table 5,Tribolium castaneum; in vivo,"1,4-cyclohexadiene, Toluene, 2,3 Butanedione, Ethanol: 0% mortality)."
CCC(C)CO (stereo not shown) [2-Methyl-1-butanol],% Mortality Day 1,"Tribolium castaneum; 5 microlitre, Day 1",80.0%
same,% Mortality Day 2,"Tribolium castaneum; 5 microlitre, Day 2",80.0%
same,% Mortality Day 3,"Tribolium castaneum; 5 microlitre, Day 3",80.0%
same,% Mortality Day 4,"Tribolium castaneum; 5 microlitre, Day 4",80.0%
CCCC(C)O (stereo not shown) [2-Pentanol],% Mortality Day 1,"Tribolium castaneum; 5 microlitre, Day 1",0.0%
same,% Mortality Day 2,"Tribolium castaneum; 5 microlitre, Day 2",0.0%
same,% Mortality Day 3,"Tribolium castaneum; 5 microlitre, Day 3",0.0%
same,% Mortality Day 4,"Tribolium castaneum; 5 microlitre, Day 4",0.0%
CC(C)CCO [3-Methyl-1-butanol],% Mortality Day 1,Tribolium castaneum; in vivo,45.0%
same,% Mortality Day 2,Tribolium castaneum; in vivo,45.0%
same,% Mortality Day 3,Tribolium castaneum; in vivo,50.0%
same,% Mortality Day 4,Tribolium castaneum; in vivo,50.0%
CCC(O)CC [3-Pentanol],"mortality after a 1 day exposure, 20 μL",T. castaneum; in vivo,100%
same,"mortality after a 1 day exposure, 50 μL",T. castaneum; in vivo,100%
same,"mortality after a 1 day exposure, 100 μL",T. castaneum; in vivo,100%
same,"mortality after a 1 day exposure, 150 μL",T. castaneum; in vivo,100%
same,"mortality after a 1 day exposure, 200 μL",T. castaneum; in vivo,100%
same,mortality after one day,T. castaneum; in vivo,100%
same,% Mortality Day 1,"Tribolium castaneum; 5 microlitre, Day 1",100.0%
same,% Mortality Day 2,"Tribolium castaneum; 5 microlitre, Day 2",100.0%
same,% Mortality Day 3,"Tribolium castaneum; 5 microlitre, Day 3",100.0%
same,% Mortality Day 4,"Tribolium castaneum; 5 microlitre, Day 4",100.0%
same,Growth Scale,Pseudomonas syringae,2
same,activity against P. syringae,Pseudomonas syringae,did not exhibit any activity
same,% Inhibition (v control),"Fusarium verticillioides; compound alone, 10 uL",47.3%
same,fungicidal activity against F. verticillioides,Fusarium verticillioides,moderate fungicidal activity
CC(=O)CCO [4-Hydroxy-2-butanone],% Mortality Day 1,"Tribolium castaneum; 5 microlitre, Day 1",4.0%
same,% Mortality Day 2,"Tribolium castaneum; 5 microlitre, Day 2",4.0%
same,% Mortality Day 3,"Tribolium castaneum; 5 microlitre, Day 3",4.0%
same,% Mortality Day 4,"Tribolium castaneum; 5 microlitre, Day 4",4.0%
CC1CC=CCC1 (stereo not shown) [4-Methylcyclohexene],% Mortality Day 1,"Tribolium castaneum; 5 microlitre, Day 1",4.0%
same,% Mortality Day 2,"Tribolium castaneum; 5 microlitre, Day 2",13.7%
same,% Mortality Day 3,"Tribolium castaneum; 5 microlitre, Day 3",17.7%
same,% Mortality Day 4,"Tribolium castaneum; 5 microlitre, Day 4",17.7%
CC=O [Acetaldehyde],"mortality after a 1 day exposure, 20 μL","T. castaneum; Volume 20 μL in 1 litre bottle, 1 day",2.3%
same,"mortality after a 1 day exposure, 50 μL","T. castaneum; Volume 50 μL in 1 litre bottle, 1 day",28.3%
same,"mortality after a 1 day exposure, 100 μL","T. castaneum; Volume 100 μL in 1 litre bottle, 1 day",98.2%
same,"mortality after a 1 day exposure, 150 μL","T. castaneum; Volume 150 μL in 1 litre bottle, 1 day",100%
same,"mortality after a 1 day exposure, 200 μL","T. castaneum; Volume 200 μL in 1 litre bottle, 1 day",100%
same,mortality after a 1 day exposure,T. castaneum; volumes ranging from 100-200 microlitres,98.2-100.0%
same,% Mortality Day 1,"Tribolium castaneum; 5 microlitre, Day 1",36.0%
same,% Mortality Day 2,"Tribolium castaneum; 5 microlitre, Day 2",36.0%
same,% Mortality Day 3,"Tribolium castaneum; 5 microlitre, Day 3",36.0%
same,% Mortality Day 4,"Tribolium castaneum; 5 microlitre, Day 4",36.0%
same,activity against P. syringae,Pseudomonas syringae,high bactericidal activity
same,fungicidal activity against F. verticillioides,Fusarium verticillioides,high fungicidal activity
same,inhibition of growth of the pathogen,Fusarium verticillioides,100%
"CC(=O)C(C)O (stereo not shown) [Acetoin, acetoin]",mortality after a 1 day exposure,T. castaneum; in vivo,100%
same,"mortality after a 1 day exposure, 20 μL",T. castaneum; in vivo,3%
same,"mortality after a 1 day exposure, 50 μL",T. castaneum; in vivo,100%
same,"mortality after a 1 day exposure, 100 μL",T. castaneum; in vivo,100%
same,"mortality after a 1 day exposure, 150 μL",T. castaneum; in vivo,100%
same,"mortality after a 1 day exposure, 200 μL",T. castaneum; in vivo,100%
same,% Mortality Day 1,"Tribolium castaneum; 5 microlitre, Day 1",100.0%
same,% Mortality Day 2,"Tribolium castaneum; 5 microlitre, Day 2",100.0%
same,% Mortality Day 3,"Tribolium castaneum; 5 microlitre, Day 3",100.0%
same,% Mortality Day 4,"Tribolium castaneum; 5 microlitre, Day 4",100.0%
same,Growth Scale,Pseudomonas syringae,2
same,activity against P. syringae,Pseudomonas syringae,did not exhibit any activity
same,% Inhibition (v control),"Fusarium verticillioides; compound alone, 10 uL",0%
same,fungicidal activity against F. verticillioides,Fusarium verticillioides,no activity
O=Cc1ccccc1 [Benzaldehyde],% Mortality Day 1,"Tribolium castaneum; 5 microlitre, Day 1",0.0%
same,% Mortality Day 2,"Tribolium castaneum; 5 microlitre, Day 2",0.0%
same,% Mortality Day 3,"Tribolium castaneum; 5 microlitre, Day 3",0.0%
same,% Mortality Day 4,"Tribolium castaneum; 5 microlitre, Day 4",0.0%
CCCC=O [Butyraldehyde],% Mortality Day 1,Tribolium castaneum; in vivo,31.5%
same,% Mortality Day 2,Tribolium castaneum; in vivo,39.5%
same,% Mortality Day 3,Tribolium castaneum; in vivo,39.5%
same,% Mortality Day 4,Tribolium castaneum; in vivo,39.5%
CCCC(=O)O [Butyric acid],% Mortality Day 1,"Tribolium castaneum; 5 microlitre, Day 1",0.0%
same,% Mortality Day 2,"Tribolium castaneum; 5 microlitre, Day 2",0.0%
same,% Mortality Day 3,"Tribolium castaneum; 5 microlitre, Day 3",6.9%
same,% Mortality Day 4,"Tribolium castaneum; 5 microlitre, Day 4",6.9%
CCO [Ethanol],% Mortality Day 1,Tribolium castaneum; in vivo,0.0%
same,% Mortality Day 2,Tribolium castaneum; in vivo,0.0%
same,% Mortality Day 3,Tribolium castaneum; in vivo,0.0%
same,% Mortality Day 4,Tribolium castaneum; in vivo,0.0%
same,mortality grouping in title of Table 5,Tribolium castaneum; in vivo,"1,4-cyclohexadiene, Toluene, 2,3 Butanedione, Ethanol: 0% mortality)."
CC(C)CC=O [Isovaleraldehyde],mortality after a 1 day exposure,T. castaneum; in vivo,100%
same,"mortality after a 1 day exposure, 20 μL",T. castaneum; in vivo,3%
same,"mortality after a 1 day exposure, 50 μL",T. castaneum; in vivo,100%
same,"mortality after a 1 day exposure, 100 μL",T. castaneum; in vivo,100%
same,"mortality after a 1 day exposure, 150 μL",T. castaneum; in vivo,100%
same,"mortality after a 1 day exposure, 200 μL",T. castaneum; in vivo,100%
same,% Mortality Day 1,"Tribolium castaneum; 5 microlitre, Day 1",100.0%
same,% Mortality Day 2,"Tribolium castaneum; 5 microlitre, Day 2",100.0%
same,% Mortality Day 3,"Tribolium castaneum; 5 microlitre, Day 3",100.0%
same,% Mortality Day 4,"Tribolium castaneum; 5 microlitre, Day 4",100.0%
same,Growth Scale,Pseudomonas syringae,0.25
same,activity against P. syringae,Pseudomonas syringae,high bactericidal activity
same,% Inhibition (v control),"Fusarium verticillioides; compound alone, 10 uL",100.0%
same,Activity (fungistatic or fungicidal),"Fusarium verticillioides; compound alone, 10 uL, plug on fresh PDA plate",Fungicidal
same,fungicidal activity against F. verticillioides,Fusarium verticillioides,high fungicidal activity
same,inhibition of growth of the pathogen,Fusarium verticillioides,100%
C=C1CCCCC1 [Methylenecyclohexane],% Mortality Day 1,"Tribolium castaneum; 5 microlitre, Day 1",8.0%
same,% Mortality Day 2,"Tribolium castaneum; 5 microlitre, Day 2",8.0%
same,% Mortality Day 3,"Tribolium castaneum; 5 microlitre, Day 3",16.0%
same,% Mortality Day 4,"Tribolium castaneum; 5 microlitre, Day 4",16.0%
"C1=CC2(C=C1)CC2 [Spiro[2.4]hepta-4,6-diene]",% Mortality Day 1,"Tribolium castaneum; 5 microlitre, Day 1",87.1%
same,% Mortality Day 2,"Tribolium castaneum; 5 microlitre, Day 2",100.0%
same,% Mortality Day 3,"Tribolium castaneum; 5 microlitre, Day 3",100.0%
same,% Mortality Day 4,"Tribolium castaneum; 5 microlitre, Day 4",100.0%
